For data set [1], the system named is Puccinia recondita f. sp. tritici. Description: Puccinia recondita f. sp. tritici/Wheat/Leaf Disc Preventative (Brown Rust). It counts as in vivo. The note with it: foliar, 200 ppm, wheat leaf disc preventative, compared to untreated control, read-out: control of Puccinia recondita f. sp. tritici.
Data set [2] has as its system Glomerella lagenarium (Colletotrichum lagenarium). Description: Glomerella lagenarium (Colletotrichum lagenarium)/Liquid Culture (Anthracnose). It counts as cell-based. The conditions noted are these: Colletotrichum orbiculare, liquid culture, compared to untreated control.
For data set [3], the system named is Monographella nivalis (Microdochium nivale). Kind of data set: Monographella nivalis (Microdochium nivale)/Liquid Culture (Foot Rot Cereals). It counts as cell-based. The conditions noted are these: liquid culture, compared to untreated control. Here is the method: (§1) Conidia of the fungus from cryogenic storage are directly mixed into nutrient broth (PDB potato dextrose broth). After placing a (DMSO) solution of test compound into a microtiter plate (96-well format), the nutrient broth containing the fungal spores is added.

For a further data set, the system named is Plasmopara viticola. Description: whole plant or invertebrate. It counts as in vivo. The conditions noted are these: foliar, read-out: control of Plasmopara viticola.
Data set [4] has as its system Mycosphaerella graminicola (Septoria tritici). Kind of data set: Mycosphaerella graminicola (Septoria tritici)/Liquid Culture (Septoria Blotch). In kind it is cell-based. The note with it: Zymoseptoria tritici; 20 ppm; liquid culture; compared to untreated control. On the procedure:
Conidia of the fungus from cryogenic storage are directly mixed into nutrient broth (PDB potato dextrose broth). After placing a (DMSO) solution of test compound into a microtiter plate (96-well format), the nutrient broth containing the fungal spores is added. […] The data are presented as the percentage of disease control of each compound for the biological tests against G. lagenarium (Example B3), P. recondita preventative (Example B13), P. teres (Example B15) and M. graminicola (Example B19) as described above. The testing rates of each biological test is specifically described in table C1 below.

Data set [5] relates to Puccinia recondita f. sp. tritici. Kind of data set: Puccinia recondita f. sp. tritici/Wheat/Leaf Disc Curative (Brown Rust). It counts as in vivo. The note with it: foliar, wheat leaf disc curative, compared to untreated control. Here is the method: Wheat leaf segments cv. Kanzler are placed on agar in multiwell plates (24-well format). The leaf segments are inoculated with a spore suspension of the fungus. Plates are stored in darkness at 19° C. and 75% rh. The formulated test compound diluted in water is applied 1 day after inoculation. The leaf segments are incubated at 19° C. and 75% rh under a light regime of 12 h light/12 h darkness in a climate cabinet and the activity of a compound is assessed as percent disease control compared to untreated when an appropriate level of disease damage appears in untreated check leaf segments (6-8 days after application).

In data set [6] the test system is Mycosphaerella arachidis (Cercospora arachidicola). Kind of data set: Mycosphaerella arachidis (Cercospora arachidicola)/Liquid Culture (Early Leaf Spot). In kind it is cell-based. The conditions noted are these: liquid culture, compared to untreated control. Here is the method:
as §1

In data set [7] the test system is Blumeria graminis f. sp. tritici (Erysiphe graminis f. sp. tritici). Description: Blumeria graminis f. sp. tritici/Wheat/Leaf Disc Preventative (Powdery Mildew on Wheat). It counts as in vivo. The conditions noted are these: foliar, wheat leaf disc preventative, compared to untreated control. Here is the method:
Wheat leaf segments cv. Kanzler are placed on agar in a multiwell plate (24-well format) and sprayed with the formulated test compound diluted in water. The leaf disks are inoculated by shaking powdery mildew infected plants above the test plates 1 day after application. The inoculated leaf disks are incubated at 20° C. and 60% rh under a light regime of 24 h darkness followed by 12 h light/12 h darkness in a climate chamber and the activity of a compound is assessed as percent disease control compared to untreated when an appropriate level of disease damage appears on untreated check leaf segments (6-8 days after application).

Data set [8] concerns Magnaporthe grisea (Pyricularia oryzae). Description: whole plant or invertebrate. The note with it: foliar, read-out: control of Magnaporthe grisea. In kind it is in vivo.
The test system of a further data set is Phytophthora infestans. Description: whole plant or invertebrate. It counts as in vivo. The note with it: in Solanum lycopersicum, foliar, read-out: control of Phytophthora infestans.
Data set [9] has as its system Phaeosphaeria nodorum (Septoria nodorum). Description: Phaeosphaeria nodorum (Septoria nodorum)/Wheat/Leaf Disc Preventative (Glume Blotch). It counts as in vivo. The conditions noted are these: Parastagonospora nodorum, foliar, wheat leaf disc preventative, compared to untreated control. On the procedure: Wheat leaf segments cv. Kanzler are placed on agar in a multiwell plate (24-well format) and sprayed with the formulated test compound diluted in water. The leaf disks are inoculated with a spore suspension of the fungus 2 days after application. The inoculated test leaf disks are incubated at 20° C. and 75% rh under a light regime of 12 h light/12 h darkness in a climate cabinet and the activity of a compound is assessed as percent disease control compared to untreated when an appropriate level of disease damage appears in untreated check leaf disks (5-7 days after application).

The subject of another data set is Phakopsora pachyrhizi. Kind of data set: Phakopsora pachyrhizi/Soybean/Preventative (Soybean Rust). In kind it is in vivo. The conditions noted are these: 288 h.

The structures appear in SMILES notation. Read-outs that look alike come from different tables or passages of the source. A value given as a limit tells only on which side of the number the result lay.

As usually defined, the inhibition of growth is the relative decrease from the control value, in per cent. Low values mean little suppression, high ones strong suppression. Turning to `CO/C=C(\Oc1cc(-n2ccc(C)n2)c(Cl)cc1C)C(=O)OC` [Compound E-28, methyl (Z)-2-[4-chloro-2-methyl-5-(3-methylpyrazol-1-yl)phenoxy]-3-methoxy-prop-2-enoate], the pest or weed control at 200 ppm (in data set [1]; in the data set on Plasmopara viticola; in [5]; in data set [7]) was at least 80% throughout. In addition, the inhibition of growth at 20 ppm in [2], in [3], in data set [4] and in data set [6] was at least 80% each time.

As for `CO/C=C(\Oc1cc(-n2ccc(C3CC3(F)F)n2)ccc1C)C(=O)OC` (centres unmarked) [Compound E-26, methyl (Z)-2-[5-[3-(2,2-difluorocyclopropyl)pyrazol-1-yl]-2-methyl-phenoxy]-3-methoxy-prop-2-enoate], the pest or weed control at 200 ppm (in [8]; in data set [1]; with Plasmopara viticola; with Phytophthora infestans; in data set [5]; in data set [9]) was at least 80% each time. Besides, the pest or weed control at 200 ppm in data set [7] is at least 80%. In addition, the inhibition of growth at 20 ppm in data set [2], in data set [3], in data set [4] and in data set [6] was at least 80% each time.

A word on the melting point: it is the temperature of the solid-liquid transition. As to `CO/C=C(\Oc1cc(-n2ccc(C3CCCCC3)n2)c(Cl)cc1C)C(=O)OC` [Compound E-115, methyl (Z)-2-[4-chloro-5-(3-cyclohexylpyrazol-1-yl)-2-methyl-phenoxy]-3-methoxy-prop-2-enoate], the melting point fell in the range of 127 to 129 °C. For the same compound, in data set [1], the pest or weed control at 200 ppm was at least 80%. Also, in [2], the inhibition of growth at 20 ppm was at least 80%. Moreover, the inhibition of growth at 20 ppm in data set [3] was at least 80%. For the same compound, the inhibition of growth at 20 ppm in data set [4] is at least 80%. Also, the pest or weed control at 200 ppm in data set [5] was at least 80%. For the same compound, the inhibition of growth at 20 ppm in data set [6] was at least 80%. Also, the pest or weed control at 200 ppm in [7] was at least 80%.

With `CO/C=C(\Oc1cc(-n2ncc(C(F)(F)F)n2)ccc1C)C(=O)OC` [Compound F-6, methyl (Z)-3-methoxy-2-[2-methyl-5-[4-(trifluoromethyl)triazol-2-yl]phenoxy]prop-2-enoate], the melting point lay in the range of 107 to 109 °C. Besides, the pest or weed control at 200 ppm in [8] is at least 80%. The same compound showed a pest or weed control at 0.6 ppm in the data set with Phakopsora pachyrhizi (Phakopsora pachyrhizi (Soybean rust), 0.6 ppm) of 0%. This compound showed a pest or weed control at 2 ppm in the data set on Phakopsora pachyrhizi (Phakopsora pachyrhizi (Soybean rust), 2 ppm) of 0%. The same compound registered a pest or weed control at 6 ppm with Phakopsora pachyrhizi (Phakopsora pachyrhizi (Soybean rust), 6 ppm) of 20%. For the same compound, the pest or weed control at 20 ppm in the data set on Phakopsora pachyrhizi (Phakopsora pachyrhizi (Soybean rust), 20 ppm) is 80%. The compound also registered a pest or weed control at 60 ppm with Phakopsora pachyrhizi (Phakopsora pachyrhizi (Soybean rust), 60 ppm) of 100%. The pest or weed control at 200 ppm in the data set on Phakopsora pachyrhizi (Phakopsora pachyrhizi (Soybean rust), read-out: control (%)) amounted to 100%. Moreover, the inhibition of growth at 20 ppm in data set [2] is at least 80%. This compound returned an inhibition of growth at 20 ppm in data set [3] of at least 80%. For the same compound, the pest or weed control at 200 ppm in the data set on Plasmopara viticola is at least 80%. The inhibition of growth at 20 ppm in data set [4] is at least 80%. In the data set on Phytophthora infestans, the pest or weed control at 200 ppm is at least 80%. In addition, the inhibition of growth at 20 ppm in data set [6] was at least 80%. This compound came in with a pest or weed control at 200 ppm in [9] of at least 80%. Moreover, the pest or weed control at 200 ppm in data set [7] was at least 80%.

Regarding `CO/C=C(\Oc1cc(-n2ccc(COC)n2)ccc1C)C(=O)OC` [Compound E-77, methyl (Z)-3-methoxy-2-[5-[3-(methoxymethyl)pyrazol-1-yl]-2-methyl-phenoxy]prop-2-enoate], the melting point was 107 to 110 °C. Further, the pest or weed control at 200 ppm in [1] is at least 80%. For the same compound, in the data set on Phakopsora pachyrhizi (foliar, soybean leaf disc preventative, compared to untreated control, read-out: control of Phakopsora pachyrhizi), the pest or weed control at 200 ppm was at least 50%. For the same compound, the inhibition of growth at 20 ppm in data set [2] was at least 80%. The compound further registered an inhibition of growth at 20 ppm in [3] of at least 80%. The pest or weed control at 200 ppm with Plasmopara viticola was at least 80%. This compound returned an inhibition of growth at 20 ppm in [4] of at least 80%. Moreover, in [5], the pest or weed control at 200 ppm is at least 80%. In [6], this compound showed an inhibition of growth at 20 ppm of at least 80%. The pest or weed control at 200 ppm in data set [7] was at least 80%.
